Assays:
OXA-1 β-lactamase = target: T1, OXA-1 β-lactamase (Escherichia coli, UniProt P13661); assay: β-lactamase enzyme inhibition, OXA-1; assay type: biochemical; conditions: Nitrocefin 100 μM, 486 nm; 15 min at 37° C. preincubation; read-out: IC50 OXA-1 (Class D)
T1 construct: made in house; host or cells: E. coli BL21(DE3)
Procedure: For SHV-5, Kpc-2, p99AmpC and OXA-1 β-lactamases, E. coli BL21(DE3) bacterial cells carrying expression plasmids (expressed as native untagged proteins) for the individual β-lactamases were grown in 1 L of Superbroth (Teknova Inc. Hollister, Calif.) supplemented with 100 μg/ml kanamycin selection and 1×5052 (0.5% glycerol, 0.05% glucose and 0.2% α-lactose) at 35° C. for 18-20 hours. Cells were harvested by centrifugation (4,000×g, 4° C., 20 min), resuspended in 50 ml of 10 mM HEPES pH 7.5 ( 1/20 of the initial volume). The cells were lysed by sonication (5 pulses of 45 seconds) at 45 W on ice. The lysates were clarified by centrifugation at 10,000×g for 40 minutes at 4° C. Samples were diluted 5-fold in 50 mM sodium acetate pH 5.0, stored overnight at 4° C., after which they were centrifuged at 10,000×g for 30 minutes to clarify, and filtered through 0.45 μm filters. The samples were loaded onto a 5 ml Capto S sepharose cation exchange column (GE Healthcare) pre-equilibrated with 50 mM sodium acetate pH 5.0. The column was washed with 5 column volumes of 50 mM sodium acetate pH 5.0 to wash out unbound protein and a linear gradient of NaCl (0 to 500 mM) was used to elute the protein (over 16 CV) from the column. Fractions were assayed for […] activity using Centa (Calbiochem, Gibbstown, N.J.) or Nitrocefin (EMD Millipore chemicals, Darmstadt, Germany) as a reporter β-lactamase substrate for activity in the isolated fractions. Active fractions were pooled, concentrated and further purified by gel filtration chromatography on a Superdex 75 prep grade gel filtration column (GE Healthcare, Piscataway, N.J.) pre-equilibrated in 50 mM Hepes pH 7.5, 150 mM NaCl. Active fractions were pooled, concentrated, and quantitated by BCA protein determination (Thermo Scientific, Rockford, Ill.), dialyzed into PBS and frozen at −80° C. in 20% glycerol until use.
An equal volume of diluted enzyme stock was added, and the plates were incubated at 37° C. for 15 min. Nitrocefin was used as substrate for p99 AmpC, VIM-2 and OXA-1 and dispensed into each well at a final concentration of 100 μM. Absorbance at 486 nm was immediately monitored for 10 min using a Biotek Powerwave XS2 microplate spectrophotometer using the GEN5 software package (Biotek Instruments, Winooski Vt.). In an analogous fashion, imipenem was used as substrate for KPC-2 and Cefotaxime was used for SHV-5, while changes in absorbance upon hydrolysis of the β-lactam ring were monitored at 300 nm and 260 nm respectively in UV-transparent 96-well microtiter assay plates. Maximum rates of hydrolysis were compared to those in control wells (without inhibitors), and percentages of enzyme inhibition were calculated for each concentration of inhibitor. The concentration of inhibitor needed to reduce the initial rate of hydrolysis of substrate by 50% (IC50) was calculated as the residual activity of β-lactamase at 486 nm using GraFit version 7 kinetics software package (Erithacus Software, Surrey, UK).
Using the methodology described above, examples of the current invention were evaluated for their ability to inhibit β-lactamase enzymes from all four Ambler classifications (A through D). […] NT=Not tested.

[1] = system: E. coli ESBL4 expressing CTX-M-15; assay: broth microdilution MIC, E. coli CTX-M-15; assay type: cell-based; conditions: Fixed CAZ (ceftazidime) 4 μg/mL
In short: (§1)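 First, strains were grown 3-5 hours in CAMHB; then compound dilutions (32 to 0.25 μg/mL final) received a beta-lactam overlay at 4 μg/mL final. Finally, plates were inoculated per CLSI and incubated 16-20 hours at 37° C.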

[2] = target: T2, VIM-2 metallo β-lactamase (Pseudomonas aeruginosa, UniProt Q9K2N0); assay: β-lactamase enzyme inhibition, VIM-2; assay type: biochemical; conditions: Nitrocefin 100 μM, 486 nm; 15 min at 37° C. preincubation; read-out: IC50 VIM-2 (Class B)
T2 construct: made in house; host or cells: E. coli BL21(DE3)
In short: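 Inhibitor and enzyme sat together 15 min at 37° C before 100 μM nitrocefin (final) was added and 486 nm absorbance read for 10 min. IC50 is the concentration halving initial hydrolysis rate relative to uninhibited wells. Protein came from Q sepharose anion exchange at pH 7.5, repeated to >90% purity.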

[3] = system: K. pneumoniae A-1797 expressing KPC-2 and VIM-4; assay: broth microdilution MIC, K. pneumoniae KPC-2 and VIM-4; assay type: cell-based; conditions: Fixed Mero (meropenem) 4 μg/mL
In short: as §1

SHV-5 β-lactamase = target: T3, SHV-5 β-lactamase (Klebsiella pneumoniae, UniProt P0A3M1); assay: β-lactamase enzyme inhibition, SHV-5; assay type: biochemical
T3 construct: made in house; host or cells: E. coli BL21(DE3)
T3 sequence (P0A3M1 22-286): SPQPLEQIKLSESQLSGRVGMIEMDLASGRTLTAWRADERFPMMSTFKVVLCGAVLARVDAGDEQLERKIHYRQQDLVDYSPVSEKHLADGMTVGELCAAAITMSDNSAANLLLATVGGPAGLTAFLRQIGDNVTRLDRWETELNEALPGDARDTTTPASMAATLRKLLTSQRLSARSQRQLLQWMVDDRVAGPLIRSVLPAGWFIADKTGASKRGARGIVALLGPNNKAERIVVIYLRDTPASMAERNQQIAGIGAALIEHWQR
In short: (§2)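 IC50 was the inhibitor concentration halving the initial hydrolysis rate versus no-inhibitor wells, following a 15 min 37° C. enzyme–inhibitor preincubation. Substrates: imipenem read at 300 nm for KPC-2, cefotaxime at 260 nm for SHV-5, and nitrocefin (100 μM final) at 486 nm for OXA-1 and p99 AmpC. Enzymes were recombinant untagged proteins from E. coli BL21(DE3).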

p99 AmpC β-lactamase = target: T4, p99 AmpC β-lactamase (Enterobacter cloacae, UniProt P05364); assay: β-lactamase enzyme inhibition, p99 AmpC; assay type: biochemical
T4 construct: made in house; host or cells: E. coli BL21(DE3)
T4 sequence (P05364 21-381): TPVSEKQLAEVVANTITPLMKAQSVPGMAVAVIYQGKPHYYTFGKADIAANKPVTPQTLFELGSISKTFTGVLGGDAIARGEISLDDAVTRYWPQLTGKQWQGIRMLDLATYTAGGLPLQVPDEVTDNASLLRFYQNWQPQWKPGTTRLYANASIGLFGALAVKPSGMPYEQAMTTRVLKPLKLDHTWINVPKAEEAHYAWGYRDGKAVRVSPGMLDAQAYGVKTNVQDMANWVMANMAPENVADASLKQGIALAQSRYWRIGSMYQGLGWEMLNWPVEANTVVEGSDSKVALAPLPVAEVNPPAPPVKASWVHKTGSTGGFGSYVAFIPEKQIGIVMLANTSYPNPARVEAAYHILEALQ
In short: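 Inhibitor and enzyme were incubated 15 min at 37°C first. The enzyme was recombinant p99 AmpC, untagged, from E. coli BL21(DE3), purified by ion-exchange and size-exclusion chromatography.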

[4] = system: K. pneumoniae 156319 expressing KPC-3; assay: broth microdilution MIC, K. pneumoniae KPC-3; assay type: cell-based; conditions: Fixed Mero (meropenem) 4 μg/mL
In short: as §1

[5] = system: E. cloacae 144200 expressing Class C P99 AmpC; assay: broth microdilution MIC, E. cloacae P99; assay type: cell-based; conditions: Fixed CAZ (ceftazidime) 4 μg/mL
In short: as §1

KPC-2 β-lactamase = target: T5, KPC-2 β-lactamase (Klebsiella pneumoniae, UniProt Q9F663); assay: β-lactamase enzyme inhibition, KPC-2; assay type: biochemical; conditions: imipenem substrate, 300 nm; 15 min at 37° C. preincubation; read-out: IC50 KPC-2 (Class A)
T5 construct: made in house; host or cells: E. coli BL21(DE3)
T5 sequence (Q9F663 25-293, looked up): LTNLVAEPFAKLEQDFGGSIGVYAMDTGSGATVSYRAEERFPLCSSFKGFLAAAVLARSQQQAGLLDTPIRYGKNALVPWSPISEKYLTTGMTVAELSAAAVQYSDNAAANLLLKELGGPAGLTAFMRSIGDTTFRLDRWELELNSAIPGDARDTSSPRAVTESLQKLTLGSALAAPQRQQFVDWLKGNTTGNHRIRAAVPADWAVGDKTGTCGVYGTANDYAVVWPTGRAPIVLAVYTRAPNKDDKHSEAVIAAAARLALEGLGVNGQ
In short: as §2

T1 sequence (P13661 26-276): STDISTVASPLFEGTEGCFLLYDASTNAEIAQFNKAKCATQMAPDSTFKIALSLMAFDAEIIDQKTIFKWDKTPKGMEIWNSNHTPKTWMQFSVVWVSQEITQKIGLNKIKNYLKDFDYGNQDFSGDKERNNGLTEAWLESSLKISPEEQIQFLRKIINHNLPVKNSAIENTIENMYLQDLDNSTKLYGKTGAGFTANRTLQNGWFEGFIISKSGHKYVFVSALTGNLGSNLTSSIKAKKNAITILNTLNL

SMILES | IC50 (OXA-1 β-lactamase) | MIC of exemplary compounds in presence of fixed β-lactams, E. coli ESBL4 CTX-M-15 [1] | IC50 [2] | MIC of exemplary compounds in presence of fixed β-lactams, K.P. A-1797 KPC-2 VIM-4 [3] | IC50 (SHV-5 β-lactamase) | IC50 (p99 AmpC β-lactamase) | MIC of exemplary compounds in presence of fixed β-lactams, K.P. 156319 KPC-3 [4] | MIC of exemplary compounds in presence of fixed β-lactams, E. cl. 144200 p99 AmpC [5] | IC50 (KPC-2 β-lactamase)
O=C(CCNS(=O)(=O)C(F)(F)F)N[C@H]1Cc2cccc(C(=O)O)c2OB1O [Example 52, (R)-2-Hydroxy-3-(3-trifluoromethanesulfonylamino-propionylamino)-3,4-dihydro-2H-benzo[e][1,2]oxaborinine-8-carboxylic acid] | < 100 nM | C (C represents the MIC in the presence of ≤4 g/mL of a β-lactamase inhibitor) | 1000 to 10000 nM | B (B represents the MIC in the presence of between 8 and 32 g/mL of a β-lactamase inhibitor) | < 100 nM | < 100 nM | B (B represents the MIC in the presence of between 8 and 32 g/mL of a β-lactamase inhibitor) | C (C represents the MIC in the presence of ≤4 g/mL of a β-lactamase inhibitor) | < 100 nM
CC(=O)CCC(=O)N[C@H]1Cc2cc(F)c(F)c(C(=O)O)c2OB1O [Example 50, (R)-6,7-Difluoro-2-hydroxy-3-(4-oxo-pentanoylamino)-3,4-dihydro-2H-benzo[e][1,2]oxaborinine-8-carboxylic acid] | < 100 nM | C (C represents the MIC in the presence of ≤4 g/mL of a β-lactamase inhibitor) | 100 to 1000 nM | B (B represents the MIC in the presence of between 8 and 32 g/mL of a β-lactamase inhibitor) | < 100 nM | 100 to 1000 nM | B (B represents the MIC in the presence of between 8 and 32 g/mL of a β-lactamase inhibitor) | C (C represents the MIC in the presence of ≤4 g/mL of a β-lactamase inhibitor) | < 100 nM
O=C(CCC(=O)c1ccccc1)N[C@H]1Cc2cccc(C(=O)O)c2OB1O [Example 42, (R)-2-Hydroxy-3-(4-oxo-4-phenyl-butyrylamino)-3,4-dihydro-2H-benzo[e][1,2]oxaborinine-8-carboxylic acid] | < 100 nM | C (C represents the MIC in the presence of ≤4 g/mL of a β-lactamase inhibitor) | 100 to 1000 nM | B (B represents the MIC in the presence of between 8 and 32 g/mL of a β-lactamase inhibitor) | < 100 nM | < 100 nM | B (B represents the MIC in the presence of between 8 and 32 g/mL of a β-lactamase inhibitor) | C (C represents the MIC in the presence of ≤4 g/mL of a β-lactamase inhibitor) | < 100 nM

Source: patent publication US11008346B2, “Beta-lactamase inhibitors” (priority 2014, dated 2021)
